According to patent publication US20160291027A1, “METHODS FOR […] ABILITY OF A Z[…] COMPOUND TO TREAT CANCER” (Eisai R&D Management Co., Ltd., priority 2007, published 2016):

Tests used:
SF-295 = experiment: CellTiter-Glo cell growth assay; format: cell-based, human; conditions: SF-295, BRAF wild-type glioblastoma, elevated pAKT; 10 μmol/L to 0.0003 μmol/L
Experimental: In order to determine whether Compound 106 resistance is associated with constitutive AKT phosphorylation as a result of activation of the PI3K signaling pathway, a panel of 10 BRAF mutated melanoma cell lines and a BRAF wild-type glioblastoma cancer cell line, SF-295, were tested using different concentrations of Compound 106 ranging from 10 μmol/L to 0.0003 μmol/L.
All assays were performed in a 96 well format. For these cell lines, protein lysates were collected in a separate experiment, which allowed for the evaluation of the constitutive level of AKT phosphorylation and correlation between the level of phosphorylated AKT (pAKT) and Compound 106 sensitivity. Cell growth was assessed using CellTiter-Glo® Luminescent Cell Viability Assay (Promega). Phosphorylated AKT protein was analyzed by Western blotting, with total AKT being used as a loading control.

AU-565 = experiment: Western blotting of response markers; format: cell-based; conditions: resistant cell line AU-565; 24 hours; concentration dependent
Experimental: (§1) In order to identify markers that could serve as response markers for determining whether a cancer in a subject is sensitive to treatment with a zearalenone analog compound, phospho-ERK, total ERK protein, phospho-pRB, total pRB, and Cyclin D1 protein levels in a cell line sensitive to Compound 106 (e.g., SK-MEL-28) and cell lines resistant to Compound 106 (e.g., AU-565) were examined by Western blotting. 2×10^6 cancer cells (SK-MEL-28 and AU-565) were plated into a 100 mm dish and incubated for two days. Test compound, e.g., Compound 106, was then added to each dish for 24 hours at a concentration ranging from […] to […]. Culture medium was added to the cells as a control. SK-MEL-28 and AU-565 cell lysate proteins were subjected to SDS-PAGE under reducing condition and immunoblotted with an antibody against phospho-ERK1/2 (catalog #9101, Cell Signaling Technology®, Danvers, Mass.), phospho-pRB (catalog #9307, Cell Signaling Technology®, Danvers, Mass.), or Cyclin D1 (catalog #sc-8396, Santa Cruz, Calif.). ERK1 (catalog #sc-93, Santa Cruz, Calif.) or pRb (catalog #sc-102, Santa Cruz, Calif.) antibody was used for the detection of the total amount of protein.

SK-MEL-28 = experiment: Western blotting of response markers; format: cell-based; conditions: sensitive cell line SK-MEL-28, 24 hours
Experimental: as §1

[1] = tested on: LOX human melanoma xenografts; experiment: Immunohistochemistry of LOX xenografts after single dosing; format: in vivo, mice; conditions: single 40 mg/kg i.v.
Experimental: LOX human melanoma cells, which carry the V600E BRAF mutation, were originally obtained from the DCTD Tumor Repository (Frederick, Md.). The cells were grown in monolayer cultures in DCTD-recommended growth media at 37° C. in a 5% CO2 humidified incubator. On the day of subcutaneous (s.c.) injections of the cells, growth medium was removed, flasks were washed with PBS, and cells were collected with trypsinization. The cells were washed and collected by centrifugation, and then resuspended in ice-cold PBS at a concentration of 1×10^7 cells/mL. The cells (1×10^6 cells) were inoculated s.c. in female athymic NU/NU mice near the right axillary area using a 27-gauge needle with a volume of 0.1 mL, and allowed to grow. Compound 106 was administered intravenously (i.v.) on a single dosing at the dosage level of 40 mg/kg with a volume of injection 0.1 mL per 10 g body weight. Then, the mice were euthanized at different time points including 0, 1, 2, 4, 8, 12, 24, 48, 72 h after dosing. The tumor tissue was dissected and fixed with 10% formalin for immunohistochemistry.
For immunohistochemical detection of phospho-ERK 1/2, rabbit mAb 20011 was used at a final concentration of […] (Cell Signaling, Cat. No. 4376). This mAb detects endogenous levels of p44 and p42 MAP Kinase (ERK1 and ERK2) when dually phosphorylated at Thr202 and Tyr204 of ERK1 (Thr185 and […] of ERK2), and singly phosphorylated at Thr202. Conditions were essentially as described in IHC Procedure (2), with incubation overnight (18 hr) at 4° C. and EDTA retrieval buffer. Secondary reagent was goat anti-rabbit antibody, conjugated to alkaline phosphatase.
For immunohistochemical detection of phospho-RB, anti-phospho-Retinoblastoma (pSer780) antibody (Sigma, Cat. No. R6275) was used (Table 10). Conditions were as described in IHC Procedure (1), with incubation for one hour at room temperature and EDTA retrieval buffer. Secondary reagent was anti-rabbit antibody, conjugated to horseradish peroxidase.

[2] = tested on: BRAF-mutated xenograft models (breast, colon, and melanoma cell lines); experiment: Other xenograft models, BRAF-mutated; format: in vivo, mice; conditions: 40 mg/kg i.v. QD×5 for 2 weeks
Experimental: Additionally, one, five, and seven out of eight animals in the groups treated with Compound 106 at doses of 10, 20, or 40 mg/kg, respectively, were tumor-free at the end of the study on day 59. […] Compound 106 was also tested in other xenograft models, in which BRAF-mutated cells, including breast, colon, and melanoma cell lines, or wildtype cells, including pancreatic cell lines, were transplanted subcutaneously into female nude mice. Compound 106 or a vehicle control was administered intravenously.

CCNc1cc(O)c2c(c1)/C=C/C[C@H](O)[C@H](O)C(=O)/C=C\[C@@H](C)[C@H](C)OC2=O [Compound 106]
Sensitivity of cell line (SF-295): resistant
protein levels of phospho-ERK (AU-565): inhibited
Protein levels of p27 (SK-MEL-28): increased
phospho-pRB protein (SK-MEL-28): decrease
protein levels of Cyclin D1 (SK-MEL-28): decreased
protein levels of phospho-ERK (SK-MEL-28; concentration dependent): inhibited
Time for phospho-ERK staining to recover to baseline levels [1]: ≤ 24 h
Phospho-ERK staining (IHC) ([1]; 8 hour time-point): essentially no observable staining
Ki67 staining (IHC) ([1]; between 24 and 48 hours, through 72 hours): suppressed to below detection
phospho-pRB level (IHC) ([1]; between 48 and 72 hours): suppressed to below detection
tumor regression ([2]; strongest effect of the range): about 73%
tumor growth inhibition ([2]; weakest effect of the range: tumor stasis (but not regression) during treatment): > 80%
